Measurements as given in PMC8398766, “Do Small Molecules Activate the TrkB Receptor in the Same Manner as BDNF? Limitations of Published TrkB Low Molecular Agonists and Screening for Novel TrkB Orthosteric Agonists” (Pharmaceuticals, 2021).

Columns and labels:
[1] = Metabolic stability in mouse liver microsomes; conditions: for Clint MLM: 1 μM, phase I; for Metabolic stability in MLM (classification): compared with verapamil
[2] = biological target: T1, TrkB receptor (Rattus norvegicus, UniProt Q63604); assay: ELFI TrkB phosphorylation, orthosteric agonist mode, SN56 T48 cell line; type: cell-based; conditions: 0.125–100 μM, 15 min
T1 construct: host or cells: SN56 T48 cell line
T1 sequence (Q63604 32-821): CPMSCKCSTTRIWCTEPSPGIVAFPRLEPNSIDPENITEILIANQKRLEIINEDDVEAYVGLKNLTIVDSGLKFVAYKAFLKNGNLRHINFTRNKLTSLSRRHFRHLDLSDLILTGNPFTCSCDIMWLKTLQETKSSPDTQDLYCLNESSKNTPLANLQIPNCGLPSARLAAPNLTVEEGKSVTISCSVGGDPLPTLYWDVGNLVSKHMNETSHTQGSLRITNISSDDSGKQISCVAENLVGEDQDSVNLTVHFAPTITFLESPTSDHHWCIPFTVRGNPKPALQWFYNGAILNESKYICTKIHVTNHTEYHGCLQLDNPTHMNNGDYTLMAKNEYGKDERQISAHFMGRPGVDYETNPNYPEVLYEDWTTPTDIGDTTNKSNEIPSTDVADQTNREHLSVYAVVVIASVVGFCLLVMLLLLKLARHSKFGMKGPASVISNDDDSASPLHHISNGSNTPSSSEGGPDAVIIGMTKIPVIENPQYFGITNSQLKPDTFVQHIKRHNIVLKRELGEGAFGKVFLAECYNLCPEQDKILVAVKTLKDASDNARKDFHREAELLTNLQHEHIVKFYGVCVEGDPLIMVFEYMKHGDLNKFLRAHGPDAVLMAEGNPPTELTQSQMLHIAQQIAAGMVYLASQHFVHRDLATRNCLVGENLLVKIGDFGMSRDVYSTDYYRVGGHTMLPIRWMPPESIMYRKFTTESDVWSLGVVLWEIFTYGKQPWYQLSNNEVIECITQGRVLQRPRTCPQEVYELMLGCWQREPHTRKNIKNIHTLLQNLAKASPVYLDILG
Protocol: The SN56 T48 cell line with stable overexpression of the TrkB receptor was purchased from Emory University (Atlanta, GA, USA) and cultivated according to the protocol described in Jang et al., 2010 [12]. The cell lines were cultivated with the following reagents: DMEM High Glucose, fetal bovine serum (FBS), Penicillin-Streptomycin Solution 100×, and Trypsin-EDTA 1×; all were purchased from Biowest, and G418 was from ThermoFisher Scientific. For the ELFI experiments, cells were seeded (8000/well) on a PDL-treated 96-well plate (BioCoat™, Corning Inc., Corning, NY, USA) and 6-well plate (400,000/well) for lysate collection and immunoblot analysis.
In the orthosteric agonist mode experiments, starved cells (5 h) were treated with compounds (0.125–100 μM; volume, 100 μL/well) or BDNF (0.01–10 nM; volume, 100 μL/well) dissolved in culture medium. In the allosteric modulation mode experiments, starved cells (5 h) were treated with final compound concentrations of 3, 10, and 30 μM; volume, 50 μL/well) in the presence of a rising concentration of BDNF (final concentration in well, 0.15–5 nM; volume, 50 μL/well). Corresponding treatment with DMSO (v/v) was performed for a control. Cells were treated for 15 min in both the orthosteric and allosteric modulation mode experiments.
The analysis of TrkB receptor activation was performed using the ELFI method adapted from Boltayev et al. (2017) with some modifications. After compound treatment, experiments were stopped by fixing cells with 10% buffered formalin (Kolchem, Lodz, Poland) for 20 min (volume, 100 μL/well). Afterwards, cells were permeabilized with washing buffer (TBS+ 0.1% Tween20) for 15 min, and endogenous peroxidases were quenched by 20 min of incubation with 1% H2O2 dissolved in TBS (each solution: volume, 100 μL/well). Epitopes were blocked with 10% BSA (Biowest) dissolved in washing buffer for 2 h (volume, 100 μL/well) and incubated with anti-pTrkB (Tyr707) primary antibody (Cell Signaling Technology, Danvers, MA, USA) diluted in washing buffer (1:500; overnight at 4 °C; volume, 100 μL/well). After repeated washing, cells were incubated with HRP-linked anti-rabbit antibody (Cell Signaling Technology) for 2 h (1:1000; RT; volume, 100 μL/well) and washed. The cells were then incubated with 100 μL of ImmunoCruz™ Western Blotting Luminol (Santa Cruz Biotechnology, Dallas, TX, USA) for 1 min in the dark, and the signals were measured using a microplate luminometer (VICTOR Light 1420-060, PerkinElmer®, Waltham, MA, USA). For non-specific binding, cells were treated, with the exception of primary antibody.

[3] = Metabolic stability in human liver microsomes; conditions: for Clint HLM: 1 μM, phase I; for Metabolic stability in HLM (classification): compared with verapamil
[4] = pH 7.4
[5] = PAMPA; conditions: for PAMPA: 10 μM, 4 h
[6] = biological target: T2, exTrkB (Homo sapiens, UniProt Q16620); assay: MST binding affinity (Kd) determination
T2 construct: human TrkB receptor (exTrkB), residues 1−430, was cloned into the pCMV2 expression vector; made in house; host or cells: ExpiCHO-S cells
T2 sequence (Q16620 32-430): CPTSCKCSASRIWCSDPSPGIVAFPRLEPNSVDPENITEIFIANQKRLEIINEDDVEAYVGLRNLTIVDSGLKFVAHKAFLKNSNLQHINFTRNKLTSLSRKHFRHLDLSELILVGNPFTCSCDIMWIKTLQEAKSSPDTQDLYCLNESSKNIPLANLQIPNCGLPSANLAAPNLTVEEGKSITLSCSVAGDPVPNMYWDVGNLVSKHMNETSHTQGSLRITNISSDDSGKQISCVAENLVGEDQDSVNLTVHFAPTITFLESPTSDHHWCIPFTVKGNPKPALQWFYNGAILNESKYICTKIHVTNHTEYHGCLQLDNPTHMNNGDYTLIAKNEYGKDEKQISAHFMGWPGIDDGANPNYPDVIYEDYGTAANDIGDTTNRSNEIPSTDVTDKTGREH
Protocol: The gene encoding the extracellular domain of the human TrkB receptor (exTrkB), residues 1−430, was cloned into the pCMV2 expression vector. Protein expression was performed in suspension-cultivated mammalian ExpiCHO-S cells using the ExpiFectamine (Thermo Scientific, Thermo Fisher Scientific, Waltham, MA, USA) transfection reagent. The secreted protein was purified using a four-step protocol. Clarified culture medium was precipitated with ammonium sulfate added to a final concentration of 1.5 M and centrifuged (235,000× g, 60 min at 4 °C). The supernatant after centrifugation was applied on a HiTrap Phenyl column (GE Healthcare, Chicago, IL, USA) equilibrated with buffer A (25 mM Tris, 1 mM DTT; pH 7.5) with 1.5 M ammonium sulfate. Bound proteins were eluted with a linear gradient of buffer A. The eluted proteins were dialyzed overnight in buffer A and loaded on a CaptoQ ImpRes column (GE Healthcare) equilibrated with buffer A with 50 mM NaCl. The bound proteins were eluted with a linear gradient of buffer A with 1 M NaCl. The fractions containing exTrkB protein were pooled, and MnCl2 and CaCl2 (1mM final concentration each) were added. The sample was purified on a HiTrap Con A 4B column (GE Healthcare) equilibrated with buffer B (25 mM Tris, 0.5 M NaCl, 1 mM MnCl2, 1 mM CaCl2; pH 7.5) and eluted with buffer C (25 mM Tris, 0.1 M NaCl, 0.4 M α-D-glucopyranoside; pH 6.5). To improve the protein recovery, buffer C flow was paused nine times during elution. The eluted fractions were concentrated and purified by size-exclusion chromatography on a HiLoad 16/600 Superdex 200 column (GE Healthcare) in buffer A with 0.5 M NaCl. The protein samples were concentrated to 1 mg/mL, and buffer was exchanged (PBS; pH 7.4). Samples were frozen in liquid nitrogen and stored at −80 °C. The protein purity was estimated by SDS–PAGE followed by Coomassie Brilliant Blue staining. The protein concentration was determined from the absorption at 280 nm using an UV NanoDrop 1000 spectrophotometer (Thermo Scientific).
The exTrkB was labeled with a Monolith Protein Labeling Kit RED-NHS 2nd Generation (NanoTemper Technologies GmbH, Munich, Germany) according to the manufacturer’s protocol. The labelling efficiency was always determined spectrophotometrically with NanoPhotometer® NP80 (Impel) in line with the manufacturer’s recommendations. Labelled exTrkB protein was aliquoted and stored at −80 °C to avoid repeated freeze–thaw cycles. Before analysis, the exTrkB protein was thawed on ice and diluted with MST buffer (50 mM Tris pH = 8; 150 mM NaCl; 10 mM MgCl2; 0.1% Tween20) to the desired concentration.
For primary screening (single-point MST experiments for signal amplitude determination), each of the 987 screened compounds were diluted in MST buffer + 0.1% Tween20 to a final concentration of 0.5 mM. The tested compounds were mixed with exTrkB solution (the final concentration of exTrkB was 20 nM) and centrifuged (10,000× g, 4 min at 4 °C) to eliminate protein and compound aggregates. Before loading to capillaries (Monolith NT.115 Capillaries, NanoTemper Technologies GmbH), the samples were incubated for 5 min at 25 °C and then placed into the MST apparatus (Monolith, NanoTemper Technologies GmbH). The experiments were performed using nano-blue excitation, LED light adjusted to 20% excitation power, and MST power set to medium, and the fluorescence signal during thermophoresis was detected after 30 s. Single-point MST experiments were performed by the determination of the amplitude signal between the unbound and bound state between the molecule and exTrkB, which was analyzed using the MO.Control Software version 1.6 (NanoTemper Technologies GmbH). A reference sample containing only exTrkB and the equivalent DMSO concentration (v/v) was included in each individual MST experiment. At least three technical replicates were prepared for each of the tested compounds. A binding affinity study was performed for 113 of the selected compounds at 16 concentration points. […]

[7] = tested on: Caco-2 monolayer; assay: Caco-2 passive permeability; conditions: for Papp,AB: Caco-2, apical to basal; for Papp,AB / Papp,BA: 2 h; for Papp,BA: Caco-2, basal to apical
[8] = Chemical stability pH 7.4; type: physicochemical; conditions: pH = 7.4, 4 h
[9] = in vivo; type: in vivo, BALB/c mice; conditions: mouse, in vivo
Protocol: The animals were obtained from the Center of Experimental Medicine (University of Bialystok, Bialystok, Poland) and housed under standard laboratory conditions. Mice had unlimited access to water and food. All the procedures were conducted according to the guidelines of the local ethical commission (appl no. 06/2019, perm. no 10/2019). […] Four animals per time point were sacrificed at 10 min, 30 min, 1 h, 2 h, and 4 h after per os administration and 5 min, 10 min, 30 min, 1 h, and 2 h after i.v. administration. The blood (0.5 mL) was collected by heart puncture using probes with anticoagulants (K2EDTA). Plasma samples were obtained by blood centrifugation (15 min, 3000× g at 23 °C). The whole brain was dissected from the skull and washed with cold 0.9% NaCl on ice. The left hemisphere was quickly frozen in liquid nitrogen and stored at −80 °C for further bioanalytical analysis. From the right hemisphere, the hippocampus and frontal cortex were isolated, weighed, and stored at −80 °C after freezing in liquid nitrogen. Isolated structures were homogenized in N-PER cocktail (10 μL for every 1 mg of tissue) using a hand homogenizer, and then processed as described in Section 4.3.3.
For bioanalytical evaluation, brain samples were homogenized in water (3 mL for every 1 g of brain tissue). Plasma and brain samples were then prepared by precipitating proteins and extracting analytes using acetonitrile with the addition of the internal standard: 150 μL of extraction solution was added to 50 μL of biological material, mixed for 1 min and centrifuged (12,900 RPM, 4 min, 4 °C), and the supernatant was collected for analysis. Standard solutions including calibration standards and quality control samples were prepared by spiking 45 μL of biological material with 5 μL of standard working solution, adding 150 μL of extraction solution, and then mixing, centrifuging, and collecting the supernatant for analysis. The concentrations of analytes in the plasma and brain samples were determined using a UPLC-MS/MS instrument (Agilent Technologies) and chromatographic columns (Agilent Zorbax Eclipse 50 × 2.1 mm; 1.7 μm).

[10] = Caco-2 passive permeability; conditions: human, Caco-2, with 5 μM elacridar and 20 μM cyclosporine A

| Clint MLM [1] [μL·min^−1·mgprotein^−1] | Metabolic stability in MLM (classification) [1] | Orthosteric activity (induction of TrkB phosphorylation) [2] | Clint HLM [3] [μL·min^−1·mgprotein^−1] | Metabolic stability in HLM (classification) [3] | Kinetic Solubility [4] [µM] | Permeability in PAMPA assay (good permeability) [5] | PAMPA [5] | Binding to the exTrkB receptor [6] | Permeability in Caco-2 system (good permeability) [7] | Papp,AB [7] | Papp,BA [7] | Chemical Stability [% of Degradation] [8] | Compound | other results |
| --- | --- | --- | --- | --- | --- | --- | --- | --- | --- | --- | --- | --- | --- | --- |
| 1316.7 | highly unstable | did not observe any orthosteric activity | 466.6 | highly unstable | 500 | > 10^−6 cm/s | 8.91 10^−6·cm/s | not observed | > 10^−6 cm/s | 28.23 10^−6·cm/s | 13.22 10^−6·cm/s | 0.65% | CC(C)CCNc1ncccc1C(=O)N1CCN(Cc2ccccc2)CC1 [NSI-189] | – |
| – | – | – | – | – | – | – | – | – | – | – | – | – | 7-hydroxy-8-methoxyflavone (7H8M-flavone) and 8-hydroxy-7-methoxyflavone (8H7M-flavone) [7H8M-flavone 8H7M-flavone] | C brain, individual mice ([9]; 50 mg/kg): < LLQ; C brain, individual mice ([9]; iv, 1 mg/kg): < LLQ; C plasma, individual mice ([9]; iv, 1 mg/kg): < LLQ; Time of maximal plasma concentration ([9]; iv, 1 mg/kg): 5 min; Time of maximal plasma concentration ([9]; po, 50 mg/kg): 10 min |
| – | highly unstable | did not observe any orthosteric activity | – | highly unstable | – | – | 0.22 10^−6·cm/s | not observed | – | – | – | Stable | COc1ccc(-c2cc3cccc(O)c3c(=O)o2)cc1 [Isocumarin, 8-hydroxy-3-(4′-methoxyphenyl)-isocumarin] | microsomal CLint at 1 μM ([1]; mouse, liver microsomes): 407 µL/min/mg; microsomal CLint at 1 μM ([3]; human, liver microsomes): 781 µL/min/mg; Papp A→B at 2 h [10]: 1.6 ×10⁻⁶ cm/s; Papp B→A at 2 h [10]: 2.18 ×10⁻⁶ cm/s |
| 4.8 | stable | did not observe any orthosteric activity | 29 | moderately stable | – | – | 2.36 10^−6·cm/s | not observed | – | 6.47 10^−6·cm/s | 4.97 10^−6·cm/s | 4.18% | OCCN(CCO)c1ccc(C(c2ccc(Cl)cc2)c2ccc(N(CCO)CCO)cc2)cc1 [LM22-B10] | Kd ([6]; non-binding compounds given as 0): 83 µM |
| 365.1 | highly unstable | did not observe any orthosteric activity | 175.7 | highly unstable | – | > 10^−6 cm/s | 15.5 10^−6·cm/s | not observed | > 10^−6 cm/s | 15.61 10^−6·cm/s | 9.03 10^−6·cm/s | 1.31% | CN(C)c1ccc(-c2cc(=O)c3ccc(O)c(O)c3o2)cc1 [4′-dimethylamino-7,8-DHF] | – |

| Compound | Clint MLM [1] [μL·min^−1·mgprotein^−1] | Metabolic stability in MLM (classification) [1] | Orthosteric activity (induction of TrkB phosphorylation) [2] | Clint HLM [3] [μL·min^−1·mgprotein^−1] | Metabolic stability in HLM (classification) [3] | Kinetic Solubility [4] [µM] | Permeability in PAMPA assay (good permeability) [5] | PAMPA [5] | Binding to the exTrkB receptor [6] | Permeability in Caco-2 system (good permeability) [7] | Papp,AB [7] | Papp,BA [7] | Chemical Stability [% of Degradation] [8] | other results |
| --- | --- | --- | --- | --- | --- | --- | --- | --- | --- | --- | --- | --- | --- | --- |
| NCCCC[C@H](NC(=O)[C@H](CO)NC(=O)CCC(=O)O)C(=O)NCCCCCCNC(=O)[C@H](CCCCN)NC(=O)[C@H](CO)NC(=O)CCC(=O)O [GSB-106, [OH-Suc-Ser-Lys-NH-(CH2)3-]2] | – | instability of this compound in the experimental system | did not observe any orthosteric activity | – | instability of this compound in the experimental system | 152.7 | – | 0.85 10^−6·cm/s | not observed | – | – | – | Stable | – |
